Laboratory results reported in US10941158B2, “Pyrazole ACC inhibitors and uses thereof” (Gilead Apollo, LLC, priority 2015, dated 2021).
Values after ≈ are worked out from the molar mass of the structure shown. Where two headings read alike, the source gives them in different places.

How the values were obtained:
human (hACC2) ACC2 = human (hACC2) ACC2 (Homo sapiens, UniProt O00763); assay: In vitro Acetyl-CoA Carboxylase (ACC) inhibition assay (ADP-Glo), hACC2; assay type: biochemical
Description: The detailed procedure is as follows. […] 10 μL ADP glo reagent was added. […] 20 μL kinase detection reagent was added.
“NA” stands for “not assayed.”

C. albicans ATCC 90028 = assay: Anti-Fungal (Candida) Activity Assay, broth microtiter MIC; assay type: cell-based; conditions: read-out: MIC C. albicans ATCC 90028
Procedure, shortened: (§1)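 MIC by visual comparison of challenged wells with growth control, scored at 48 h. Setup: CLSI M27-A3 broth microtiter plates, RPMI 1640+MOPS medium, direct colony suspension from overnight Sabouraud agar cultures (35 °C, 24 h).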

C. krusei ATCC 6258 = assay: as above; assay type: cell-based; conditions: Pichia kudriavzevii, read-out: MIC C. krusei ATCC 6258
Procedure, shortened: as §1

[1] = test system: C. parapsilosis ATCC 22019; assay: as above; assay type: cell-based; conditions: Lodderomyces parapsilosis, read-out: MIC C. parapsilosis ATCC 22019
Procedure, shortened: as §1

Botrtyis cinerea (Bc) = assay: Growth inhibition assay of fungal pathogens; assay type: cell-based; conditions: 48 h, read-out: Concentration at 90% Inhibition Bc
Procedure, shortened: (§2)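 Spores of Fm, Bc and Dm were suspended in 17% V8 liquid medium, while Rs was inoculated as 1.5 mm mycelial plugs in ¼ PDB. Compounds were tested at final 50, 10 and 2 ppm or 2, 0.4 and 0.08 ppm. Percent growth inhibition at 48 h versus 2% DMSO came from OD600 and visual ratings.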

[2] = test system: Collectotrichum graminicola (Cg); assay: Growth inhibition assay of fungal pathogens; assay type: cell-based; conditions: 48 h, read-out: Concentration at 90% Inhibition Cg
Procedure, shortened: (§3)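 Liquid-culture assay in which test compounds are applied at three final concentrations (50, 10, 2 ppm or 2, 0.4, 0.08 ppm). Inoculum levels follow 48 h growth curves for each fungus. Growth is monitored by OD600 and by eye, and the 48 h values give % inhibition against DMSO.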

Diplodia maydis (Dm) = assay: Growth inhibition assay of fungal pathogens; assay type: cell-based; conditions: Stenocarpella maydis, 48 h, read-out: Concentration at 90% Inhibition Dm
Procedure, shortened: as §2

[3] = test system: Fusarium moniliforme (Fm); assay: Growth inhibition assay of fungal pathogens; assay type: cell-based; conditions: for IC90: Fusarium verticillioides, 48 h, read-out: Concentration at 90% Inhibition Fm
Procedure, shortened: as §2

[4] = test system: Fusarium virguliforme (Fv); assay: Growth inhibition assay of fungal pathogens; assay type: cell-based; conditions: 48 h
Procedure, shortened: as §3

[5] = test system: Phytophthora capsici (Pc); assay: Growth inhibition assay of fungal pathogens; assay type: cell-based; conditions: for IC90: Phytophthora capsici, read-out: Concentration at 90% Inhibition Pc
Procedure, shortened: as §3

Rhizoctonia solani (Rs) = assay: Growth inhibition assay of fungal pathogens; assay type: cell-based; conditions: 48 h, read-out: Concentration at 90% Inhibition Rs
Procedure, shortened: as §2

Septoria tritici (St) = assay: Growth inhibition assay of fungal pathogens; assay type: cell-based; conditions: for IC90: Zymoseptoria tritici, read-out: Concentration at 90% Inhibition St
Procedure, shortened: as §3

[6] = ATCC90028, 3 replicates, MIC recorded at 48 h
[7] = ATCC6258, 3 replicates, MIC recorded at 48 h
[8] = ATCC22019, 3 replicates, MIC recorded at 48 h
[9] = Table 4a, 48 hours, read-out: Concentration at 90% Inhibition Fv
[10] = Table 4b, 48 hours, read-out: Concentration at 90% Inhibition Fv
[11] = read-out: Concentration at 90% Inhibition Fv, Table 4a, 48 hours
[12] = read-out: Concentration at 90% Inhibition Fv, Table 4b, 48 hours

human (hACC2) ACC2, sequence (O00763 whole entry): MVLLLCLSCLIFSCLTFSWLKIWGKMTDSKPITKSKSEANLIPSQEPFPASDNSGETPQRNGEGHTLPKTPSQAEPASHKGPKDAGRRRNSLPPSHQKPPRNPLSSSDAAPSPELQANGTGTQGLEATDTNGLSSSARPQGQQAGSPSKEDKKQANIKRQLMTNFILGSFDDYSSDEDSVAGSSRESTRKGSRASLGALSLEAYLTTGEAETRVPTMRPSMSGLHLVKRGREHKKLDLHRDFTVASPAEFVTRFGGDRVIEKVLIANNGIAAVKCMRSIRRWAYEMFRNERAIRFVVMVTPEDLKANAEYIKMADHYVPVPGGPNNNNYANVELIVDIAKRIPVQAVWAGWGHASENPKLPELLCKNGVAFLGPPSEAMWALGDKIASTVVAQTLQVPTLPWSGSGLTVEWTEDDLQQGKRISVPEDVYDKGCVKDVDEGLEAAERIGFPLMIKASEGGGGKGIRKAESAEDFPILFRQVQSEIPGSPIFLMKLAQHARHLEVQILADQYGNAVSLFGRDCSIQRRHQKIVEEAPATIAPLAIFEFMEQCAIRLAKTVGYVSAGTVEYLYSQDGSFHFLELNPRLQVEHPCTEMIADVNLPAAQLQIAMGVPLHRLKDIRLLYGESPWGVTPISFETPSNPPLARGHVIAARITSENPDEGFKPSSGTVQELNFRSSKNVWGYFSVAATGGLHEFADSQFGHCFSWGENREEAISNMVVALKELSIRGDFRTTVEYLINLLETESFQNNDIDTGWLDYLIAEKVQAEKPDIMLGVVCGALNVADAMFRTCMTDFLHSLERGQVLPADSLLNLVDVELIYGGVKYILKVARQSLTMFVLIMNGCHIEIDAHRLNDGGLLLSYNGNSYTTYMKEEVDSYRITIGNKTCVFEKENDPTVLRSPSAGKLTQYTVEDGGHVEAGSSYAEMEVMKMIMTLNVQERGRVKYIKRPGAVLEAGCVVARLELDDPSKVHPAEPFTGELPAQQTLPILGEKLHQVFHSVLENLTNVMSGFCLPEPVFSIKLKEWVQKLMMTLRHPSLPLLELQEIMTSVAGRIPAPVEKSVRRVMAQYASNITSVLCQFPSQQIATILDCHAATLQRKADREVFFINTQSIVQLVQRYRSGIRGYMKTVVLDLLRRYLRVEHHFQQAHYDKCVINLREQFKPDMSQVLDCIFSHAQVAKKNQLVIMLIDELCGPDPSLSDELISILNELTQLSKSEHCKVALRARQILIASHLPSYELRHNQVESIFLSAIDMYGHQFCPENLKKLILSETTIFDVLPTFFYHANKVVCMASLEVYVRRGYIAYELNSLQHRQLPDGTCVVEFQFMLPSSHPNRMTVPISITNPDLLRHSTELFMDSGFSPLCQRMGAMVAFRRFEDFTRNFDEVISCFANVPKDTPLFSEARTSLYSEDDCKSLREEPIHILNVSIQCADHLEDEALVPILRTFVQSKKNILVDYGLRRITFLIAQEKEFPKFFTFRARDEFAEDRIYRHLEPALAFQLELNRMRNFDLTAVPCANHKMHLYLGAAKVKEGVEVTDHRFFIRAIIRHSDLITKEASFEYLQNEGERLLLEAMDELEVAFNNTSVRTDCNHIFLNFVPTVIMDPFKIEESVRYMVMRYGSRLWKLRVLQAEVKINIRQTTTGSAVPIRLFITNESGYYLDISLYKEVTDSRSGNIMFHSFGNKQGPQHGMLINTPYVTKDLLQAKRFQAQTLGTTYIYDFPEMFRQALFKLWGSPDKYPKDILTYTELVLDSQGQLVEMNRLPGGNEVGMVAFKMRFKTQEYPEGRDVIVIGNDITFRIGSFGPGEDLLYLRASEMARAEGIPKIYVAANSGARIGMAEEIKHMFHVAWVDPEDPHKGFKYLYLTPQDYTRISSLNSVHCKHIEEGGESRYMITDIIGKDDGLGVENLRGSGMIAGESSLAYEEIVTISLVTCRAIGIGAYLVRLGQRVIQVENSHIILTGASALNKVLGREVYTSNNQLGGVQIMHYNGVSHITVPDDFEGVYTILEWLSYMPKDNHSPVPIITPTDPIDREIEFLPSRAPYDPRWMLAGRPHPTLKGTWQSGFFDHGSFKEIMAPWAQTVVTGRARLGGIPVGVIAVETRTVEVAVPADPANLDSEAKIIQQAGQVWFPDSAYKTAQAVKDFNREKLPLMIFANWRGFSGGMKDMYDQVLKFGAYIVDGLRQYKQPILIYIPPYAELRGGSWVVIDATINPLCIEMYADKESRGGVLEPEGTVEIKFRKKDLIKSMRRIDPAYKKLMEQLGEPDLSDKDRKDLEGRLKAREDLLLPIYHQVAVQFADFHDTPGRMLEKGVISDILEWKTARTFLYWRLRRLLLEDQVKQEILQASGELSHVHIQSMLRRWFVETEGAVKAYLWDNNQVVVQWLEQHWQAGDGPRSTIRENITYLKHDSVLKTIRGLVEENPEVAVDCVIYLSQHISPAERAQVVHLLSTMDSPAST

| SMILES | IC50 (human (hACC2) ACC2) | IC90 (Botrtyis cinerea (Bc); Table 4a) | IC90 (Botrtyis cinerea (Bc); Table 4b) | IC90 ([2]; Table 4a) | IC90 ([2]; Table 4b) | IC90 (Diplodia maydis (Dm); Table 4a) | IC90 (Diplodia maydis (Dm); Table 4b) | IC90 (Rhizoctonia solani (Rs); Table 4a) | IC90 (Rhizoctonia solani (Rs); Table 4b) | MIC (C. albicans ATCC 90028; ATCC90028, 48 h) | MIC (C. krusei ATCC 6258; ATCC6258, 48 h) | MIC ([1]; ATCC22019, 48 h) | IC90 [3] | Concentration at 90% Inhibition Fm ([3]; Table 4b, 48 hours) | IC90 [4, 11] | IC90 [4, 12] | IC90 ([5]; 48 h, Table 4a) | IC90 ([5]; 48 h, Table 4b) | IC90 (Septoria tritici (St); 48 h, Table 4a) | IC90 (Septoria tritici (St); 48 h, Table 4b) | also measured |
| --- | --- | --- | --- | --- | --- | --- | --- | --- | --- | --- | --- | --- | --- | --- | --- | --- | --- | --- | --- | --- | --- |
| COc1ccc(F)cc1[C@H](Cn1c(=O)n(C(C)(C)C(=O)N2CCCC2)c(=O)c2c(C)c(-n3cccn3)sc21)O[C@H]1CC[C@@H](O)CC1 [Compound I-15, 1-((R)-2-(5-fluoro-2-methoxyphenyl)-2-(((1s,4S)-4-hydroxycyclohexyl)oxy)ethyl)-5-methyl-3-(2-methyl-1-oxo-1-(pyrrolidin-1-yl)pro-pan-2-yl)-6-(1H-pyrazol-1-yl)thieno[2,3-d]pyrimidine-2,4(1H,3H)-dione] | 0.003 to 0.01 µM | 2 µg/mL (≈ 3.06 µM) | 2 µg/mL (≈ 3.06 µM) | > 50 µg/mL | 10 µg/mL (≈ 15.3 µM) | > 50 µg/mL | 10 µg/mL (≈ 15.3 µM) | > 50 µg/mL | 10 µg/mL (≈ 15.3 µM) |  |  |  |  |  |  |  |  |  |  |  | MIC (C. albicans ATCC 90028; [6]): 0.25 to 1 µg/mL (≈ 0.382 to 1.53 µM); MIC (C. krusei ATCC 6258; [7]): 1.1 to 2 µg/mL (≈ 1.68 to 3.06 µM); MIC [1, 8]: 0.25 to 1 µg/mL (≈ 0.382 to 1.53 µM); IC90 ([3]; Table 4a, 48 hours): 0.4 µg/mL (≈ 0.612 µM); IC90 ([3]; Table 4b, 48 hours): 0.4 µg/mL (≈ 0.612 µM); IC90 [4, 9]: 2 µg/mL (≈ 3.06 µM); IC90 [4, 10]: 2 µg/mL (≈ 3.06 µM); IC90 ([5]; Table 4a, 48 hours): > 50 µg/mL; Concentration at 90% Inhibition Pc ([5]; Table 4b, 48 hours): D (“D” provided a compound concentration of >50 ppm at 90% inhibition of fungal pathogens); Concentration at 90% Inhibition St (Septoria tritici (St); Table 4b, 48 hours): D (“D” provided a compound concentration of >50 ppm at 90% inhibition of fungal pathogens); IC90 (Septoria tritici (St); Table 4a, 48 hours): > 50 µg/mL |
| COc1ccccc1[C@H](Cn1c(=O)n(C(C)(C)C(=O)NC(C)C)c(=O)c2c(C)c(-n3cccn3)sc21)OC(C)C [Compound I-17, (R)-2-(l-(2-isopropoxy-2-(2-methoxyphenyl)ethyl)-5-methyl-2,4-dioxo-6-(H-pyrazol-1-yl)-1,4-dihydrothieno[2,3-d]pyrimidin-3(2H)-yl)-N-isopropyl-2-methylpropanamide] | 0.003 to 0.01 µM | 2 µg/mL (≈ 3.52 µM) | 2 µg/mL (≈ 3.52 µM) | > 50 µg/mL | 10 µg/mL (≈ 17.6 µM) | 2 µg/mL (≈ 3.52 µM) | 2 µg/mL (≈ 3.52 µM) | > 50 µg/mL | > 50 µg/mL | 0.25 to 1 µg/mL (≈ 0.44 to 1.76 µM) | 0.25 to 1 µg/mL (≈ 0.44 to 1.76 µM) | 0.25 to 1 µg/mL (≈ 0.44 to 1.76 µM) | 0.4 µg/mL (≈ 0.705 µM) | A (“A” provided a compound concentration of 0.4 ppm at 90% inhibition of fungal pathogens) | 0.4 µg/mL (≈ 0.705 µM) | 0.4 µg/mL (≈ 0.705 µM) | > 50 µg/mL | > 50 µg/mL | > 50 µg/mL | > 50 µg/mL |  |
| COc1ccccc1[C@H](Cn1c(=O)n(C(C)(C)C(=O)N2CCCCC2)c(=O)c2c(C)c(-n3cccn3)sc21)OC(C)C [Compound I-19, (R)-1-(2-isopropoxy-2-(2-methoxyphenyl)ethyl)-5-methyl-3-(2-methyl-1-oxo-1-(piperidin-1-yl)propan-2-yl)-6-(H-pyrazol-1-yl)thieno[2,3-d]pyrimidine-2,4(1H,3H)-dione] | 0.01 to 0.04 µM | 0.4 µg/mL (≈ 0.674 µM) | 0.4 µg/mL (≈ 0.674 µM) | 10 µg/mL (≈ 16.8 µM) | 2 µg/mL (≈ 3.37 µM) | 2 µg/mL (≈ 3.37 µM) | 2 µg/mL (≈ 3.37 µM) | 2 µg/mL (≈ 3.37 µM) | 2 µg/mL (≈ 3.37 µM) | > 4.1 µg/mL | 2.1 to 4 µg/mL (≈ 3.54 to 6.74 µM) | > 4.1 µg/mL | 0.08 µg/mL (≈ 0.135 µM) | AA (“AA” provided a compound concentration of 0.08 ppm at 90% inhibition of fungal pathogens) | 0.4 µg/mL (≈ 0.674 µM) | 0.4 µg/mL (≈ 0.674 µM) | > 50 µg/mL | > 50 µg/mL | > 50 µg/mL | > 50 µg/mL |  |
| COc1ccccc1[C@H](Cn1c(=O)n(C(C)(C)C(=O)NC(C)C)c(=O)c2c(C)c(-n3cccn3)sc21)OCC(C)C [Compound I-21, (R)-2-(1-(2-isobutoxy-2-(2-methoxyphenyl)ethyl)-5-methyl-2,4-dioxo-6-(1H-pyrazol-1-yl)-1,4-dihydrothieno[2,3-d]pyrimidin-3(2H)-yl)-N-isopropyl-2-methylpropanamide] | 0.01 to 0.04 µM | 2 µg/mL (≈ 3.44 µM) | 2 µg/mL (≈ 3.44 µM) | > 50 µg/mL | 10 µg/mL (≈ 17.2 µM) | 10 µg/mL (≈ 17.2 µM) | 2 µg/mL (≈ 3.44 µM) | 2 µg/mL (≈ 3.44 µM) | 2 µg/mL (≈ 3.44 µM) | 0.25 to 1 µg/mL (≈ 0.43 to 1.72 µM) | 0.25 to 1 µg/mL (≈ 0.43 to 1.72 µM) | 0.25 to 1 µg/mL (≈ 0.43 to 1.72 µM) | 0.4 µg/mL (≈ 0.688 µM) | A (“A” provided a compound concentration of 0.4 ppm at 90% inhibition of fungal pathogens) | > 50 µg/mL | 10 µg/mL (≈ 17.2 µM) | > 50 µg/mL | > 50 µg/mL | > 50 µg/mL | > 50 µg/mL |  |
| COc1ccccc1[C@H](Cn1c(=O)n(C(C)(C)C(=O)N2CCCC2)c(=O)c2c(C)c(-n3cccn3)sc21)OCC(C)C [Compound I-22, (R)-1-(2-isobutoxy-2-(2-methoxyphenyl)ethyl)-5-methyl-3-(2-methyl-1-oxo-1-(pyrrolidin-1-yl)propan-2-yl)-6-(1H-pyrazol-1-yl)thieno[2,3-d]pyrimidine-2,4(1H,3H)-dione] | 0.003 to 0.01 µM | 2 µg/mL (≈ 3.37 µM) | 2 µg/mL (≈ 3.37 µM) | 2 µg/mL (≈ 3.37 µM) | 2 µg/mL (≈ 3.37 µM) | 2 µg/mL (≈ 3.37 µM) | 2 µg/mL (≈ 3.37 µM) | 2 µg/mL (≈ 3.37 µM) | 2 µg/mL (≈ 3.37 µM) |  |  |  |  |  |  |  |  |  |  |  | MIC (C. albicans ATCC 90028; [6]): 0.25 to 1 µg/mL (≈ 0.421 to 1.68 µM); MIC (C. krusei ATCC 6258; [7]): 0.25 to 1 µg/mL (≈ 0.421 to 1.68 µM); MIC [1, 8]: 1.1 to 2 µg/mL (≈ 1.85 to 3.37 µM); IC90 ([3]; Table 4a, 48 hours): 2 µg/mL (≈ 3.37 µM); IC90 ([3]; Table 4b, 48 hours): 0.4 µg/mL (≈ 0.674 µM); IC90 [4, 9]: > 50 µg/mL; IC90 [4, 10]: 10 µg/mL (≈ 16.8 µM); IC90 ([5]; Table 4a, 48 hours): > 50 µg/mL; Concentration at 90% Inhibition Pc ([5]; Table 4b, 48 hours): D (“D” provided a compound concentration of >50 ppm at 90% inhibition of fungal pathogens); Concentration at 90% Inhibition St (Septoria tritici (St); Table 4b, 48 hours): D (“D” provided a compound concentration of >50 ppm at 90% inhibition of fungal pathogens); IC90 (Septoria tritici (St); Table 4a, 48 hours): > 50 µg/mL |
